Where two headings read alike, the source gives them in different places.
Legend:
[1] = Electrometric titration (pKa); type: physicochemical; conditions: electrometric titration in 66% dimethylformamide in water
Solubility in solvents = type: physicochemical; conditions: solvents as named
Text: The seven antibiotic factors are recovered from the fermentation and are obtained as a mixture, the A41030 complex. It will be recognized that the ratio of the factors in the A41030 complex will vary, depending upon the fermentation conditions used. The individual factors […], and G are separated and isolated as individual compounds, as hereinafter described.

Staphylococcus aureus = test: Agar-dilution MIC; type: cell-based
Hemophilus influenzae = test: Agar-dilution MIC; type: cell-based; conditions: Table 17, 24 hours
[2] = test system: Staphylococcus epidermidis; test: Agar-dilution MIC; type: cell-based; conditions: Table 17, 24 hours
Text: (§1) The agar-dilution procedure described by the International Collaborative study (ICS) group was used to determine the minimum inhibitory concentrations (MIC's).

Streptococcus pneumoniae = test: Agar-dilution MIC; type: cell-based; conditions: Table 17; 24 hours; Streptococcus pneumoniae Park I
Text: as §1

Streptococcus pyogenes = test: Agar-dilution MIC; type: cell-based; conditions: Table 17; 24 hours; Streptococcus pyogenes C203
Text: as §1

[3] = test system: Streptococcus sp. (Group D); test: Agar-dilution MIC; type: cell-based; conditions: Table 17, 24 hours
Text: as §1

Bacteroides fragilis = test: Agar-dilution MIC (anaerobes); type: cell-based; conditions: Table 14
Text: as §1

B. thetaiotaomicron = type: cell-based; conditions: Table 14; Bacteroides thetalotaomicron 1438
Text: as §1

Propionibacterium acnes = test: Agar-dilution MIC (anaerobes); type: cell-based; conditions: Table 14; Propionibacterium acnes 79
Text: Antibiotic A41030 factors A, B and C have also been tested and found to be active against a genus of anaerobic bacteria identified as Propionibacterium acnes.

Clostridium difficile [4] = type: cell-based
Text: The A41030 antibiotic factors A, B, C, D, E, F, and G, are also active against a number of strains of Clostridium difficile, as determined by the agar-dilution method.

Clostridium perfringens = type: cell-based; conditions: Table 14; Clostridium perfringens 81
Clostridium septicum = test: Agar-dilution MIC (anaerobes); type: cell-based; conditions: Table 14; Clostridium septicum 1128
Eubacterium aerofaciens = test: Agar-dilution MIC (anaerobes); type: cell-based; conditions: Table 14; Eubacterium aerofaciens 1235
Peptococcus prevoti = test: Agar-dilution MIC (anaerobes); type: cell-based; conditions: Table 14; Peptococcus prevoti 1281
[5] = test system: Peptostreptococcus anaerobius; test: Agar-dilution MIC (anaerobes); type: cell-based; conditions: Table 14; Peptostreptococcus anaerobius 1428
[6] = test system: Peptostreptococcus intermedius; test: Agar-dilution MIC (anaerobes); type: cell-based; conditions: Table 14; Peptostreptococcus intermedius 1264
[7] = test system: Bacteroides melaninogenicus; test: Agar-dilution MIC (anaerobes); type: cell-based; conditions: Table 14
Fusobacterium symbiosum = test: Agar-dilution MIC (anaerobes); type: cell-based; conditions: Table 14; Fusobacterium symbiosum 1470
[8] = test system: Fusobacterium necrophorum; test: Agar-dilution MIC (anaerobes); type: cell-based; conditions: Table 14; Fusobacterium necrophorum 6054A
Escherichia coli = test: Agar-dilution MIC; type: cell-based; conditions: Table 17; 24 hours; Escherichia coli TEM
Klebsiella pneumoniae = test: Agar-dilution MIC; type: cell-based; conditions: Table 17; 24 hours; Klebsiella pneumoniae X26
Salmonella typhi = test: Agar-dilution MIC; type: cell-based; conditions: Table 17, 24 hours
S. pneumoniae = test: Experimental bacterial infection in mice, subcutaneous ED50; type: in vivo; conditions: two doses subcutaneously
Experimental: (§2) All of the A41030 factors tested have shown in vivo antimicrobial activity against experimental bacterial infections. When two doses of test compound were administered subcutaneously to mice in illustrative infections, the activity observed is measured as an ED50 value [effective dose in mg./kg. to protect fifty percent of the test animals: See Warren Wick, et al., J. Bacteriol. 81, 233-235 (1961)].

S. pyogenes = test: as above; type: in vivo; conditions: two doses subcutaneously
Experimental: as §2

Staph. aureus = test: as above; type: in vivo; conditions: two doses subcutaneously
Experimental: as §2

Bacteroides corrodens = test: Agar-dilution MIC (anaerobes); type: cell-based; conditions: Table 14; Bacteroides corrodens 1874
Bacteroides vulgatis = test: Agar-dilution MIC (anaerobes); type: cell-based; conditions: Table 14; Bacteroides vulgatis 1211
[9] = test system: Peptococcus asaccharolyticus; test: Agar-dilution MIC (anaerobes); type: cell-based; conditions: Table 14; Peptococcus asaccharolyticus 1302
Clostridium difficile [10] = type: cell-based; conditions: Table 14; Clostridium difficile 2994
[11] = Staphylococcus epidermidis EPI1
[12] = Staphylococcus epidermidis EPI2
[13] = Table 16, C. difficile WAL-2112
[14] = Table 16, C. difficile WAL-3657
[15] = Table 16, C. difficile WAL-4268
[16] = Bacteroides melaninogenicus 2736

Substance: A41030 factor D
- pKa, first titratable group [1]: about 5.5
- pKa, second titratable group [1]: ~7.6
- Solubility (Solubility in solvents): soluble in the same solvents as factor A
- MIC (Staphylococcus aureus): 0.25 µg/mL
- MIC (Staphylococcus aureus; Table 17, 24 hours, Staphylococcus aureus S13E): 0.25 µg/mL
- MIC (Staphylococcus aureus; Table 17, 24 hours, Staphylococcus aureus V41): 0.25 µg/mL
- MIC (Staphylococcus aureus; Table 17, 24 hours, Staphylococcus aureus X400): 0.25 µg/mL
- MIC (Hemophilus influenzae; Haemophilus influenzae 76): 8 µg/mL
- MIC (Hemophilus influenzae; Haemophilus influenzae C.L.): 8 µg/mL
- MIC [2, 11]: 0.25 µg/mL
- MIC [2, 12]: 1 µg/mL
- MIC (Streptococcus pneumoniae): 0.5 µg/mL
- MIC (Streptococcus pyogenes): 0.5 µg/mL
- MIC ([3]; Streptococcus sp. Group D 9960): 1 µg/mL
- MIC ([3]; Streptococcus sp. Group D X66): 1 µg/mL
- MIC (Bacteroides fragilis; Bacteroides fragilis 111): 32 µg/mL
- MIC (Bacteroides fragilis; Bacteroides fragilis 1877): 32 µg/mL
- MIC (Bacteroides fragilis; Bacteroides fragilis 1936B): 32 µg/mL
- MIC (B. thetaiotaomicron): 32 µg/mL
- MIC (Propionibacterium acnes): 0.25 µg/mL
- MIC (Clostridium difficile [4]): 0.5 µg/mL
- MIC (Clostridium difficile [4]; Table 16, C. difficile 78): ≤ 0.25 µg/mL
- MIC (Clostridium difficile [4]; Table 16, C. difficile 107B): ≤ 0.25 µg/mL
- MIC (Clostridium difficile [4]; Table 16, C. difficile 111F): ≤ 0.25 µg/mL
- MIC (Clostridium difficile [4]; Table 16, C. difficile 1153): 1.0 µg/mL
- MIC (Clostridium difficile [4]; Table 16, C. difficile 2634): 0.5 µg/mL
- MIC (Clostridium difficile [4]; Table 16, C. difficile 3424-5B): 0.5 µg/mL
- MIC (Clostridium difficile [4]; Table 16, C. difficile 3816): 0.5 µg/mL
- MIC (Clostridium difficile [4]; Table 16, C. difficile 3950): 0.5 µg/mL
- MIC (Clostridium difficile [4]; Table 16, C. difficile 6890): 0.5 µg/mL
- MIC (Clostridium difficile [4]; Table 16, C. difficile 8484): ≤ 0.25 µg/mL
- MIC (Clostridium difficile [4]; Table 16, C. difficile A-194): ≤ 0.25 µg/mL
- MIC (Clostridium difficile [4]; Table 16, C. difficile A-195): ≤ 0.25 µg/mL
- MIC (Clostridium difficile [4]; Table 16, C. difficile A-196): 0.5 µg/mL
- MIC (Clostridium difficile [4]; Table 16, C. difficile A-279): ≤ 0.25 µg/mL
- MIC (Clostridium difficile [4]; Table 16, C. difficile A-280): ≤ 0.25 µg/mL
- MIC (Clostridium difficile [4]; Table 16, C. difficile A-281): 0.5 µg/mL
- MIC (Clostridium difficile [4]; [13]): ≤ 0.25 µg/mL
- MIC (Clostridium difficile [4]; [14]): ≤ 0.25 µg/mL
- MIC (Clostridium difficile [4]; [15]): ≤ 0.25 µg/mL
- MIC (Clostridium perfringens): 0.5 µg/mL
- MIC (Clostridium septicum): 0.25 µg/mL
- MIC (Eubacterium aerofaciens): 0.5 µg/mL
- MIC (Peptococcus prevoti): 0.25 µg/mL
- MIC [5]: 0.5 µg/mL
- MIC [6]: 1.0 µg/mL
- MIC ([7]; Bacteroides melaninogenicus 1856/28): > 64 µg/mL
- MIC [7, 16]: 0.5 µg/mL
- MIC (Fusobacterium symbiosum): 0.5 µg/mL
- MIC [8]: ≤ 0.125 µg/mL
- MIC (Escherichia coli): 64 µg/mL
- MIC (Klebsiella pneumoniae): 128 µg/mL
- MIC (Salmonella typhi; Salmonella typhi 1335): > 128 µg/mL
- MIC (Salmonella typhi; Salmonella typhi X514): > 128 µg/mL
- ED50 (S. pneumoniae): 2.21 mg/kg
- ED50 (S. pyogenes): 3.24 mg/kg
- ED50 (Staph. aureus): 0.339 mg/kg
- MIC (Bacteroides corrodens): 32 µg/mL
- MIC (Bacteroides vulgatis): 32 µg/mL
- MIC [9]: ≤ 0.125 µg/mL

Substance: A41030 factor G
- pKa, first titratable group [1]: about 5.4
- pKa, second titratable group [1]: ~7.0
- Solubility (Solubility in solvents): soluble in the same solvents as is factor A
- MIC (Hemophilus influenzae; Haemophilus influenzae 76): 32 µg/mL
- MIC (Hemophilus influenzae; Haemophilus influenzae C.L.): 32 µg/mL
- MIC [2, 11]: 0.5 µg/mL
- MIC [2, 12]: 0.5 µg/mL
- MIC (Streptococcus pneumoniae): 2 µg/mL
- MIC (Streptococcus pyogenes): 2 µg/mL
- MIC ([3]; Streptococcus sp. Group D 9960): 4 µg/mL
- MIC ([3]; Streptococcus sp. Group D X66): 4 µg/mL
- MIC (Bacteroides fragilis; Bacteroides fragilis 111): 32 µg/mL
- MIC (Bacteroides fragilis; Bacteroides fragilis 1877): 32 µg/mL
- MIC (Bacteroides fragilis; Bacteroides fragilis 1936B): 64 µg/mL
- MIC (B. thetaiotaomicron): 64 µg/mL
- MIC (Propionibacterium acnes): 1.0 µg/mL
- MIC (Clostridium difficile [4]; Table 16, C. difficile 78): 1.0 µg/mL
- MIC (Clostridium difficile [4]; Table 16, C. difficile 107B): 1.0 µg/mL
- MIC (Clostridium difficile [4]; Table 16, C. difficile 111F): 1.0 µg/mL
- MIC (Clostridium difficile [4]; Table 16, C. difficile 1153): 1.0 µg/mL
- MIC (Clostridium difficile [4]; Table 16, C. difficile 2634): 1.0 µg/mL
- MIC (Clostridium difficile [4]; Table 16, C. difficile 3424-5B): 1.0 µg/mL
- MIC (Clostridium difficile [4]; Table 16, C. difficile 3816): 1.0 µg/mL
- MIC (Clostridium difficile [4]; Table 16, C. difficile 3950): 1.0 µg/mL
- MIC (Clostridium difficile [4]; Table 16, C. difficile 6890): 1.0 µg/mL
- MIC (Clostridium difficile [4]; Table 16, C. difficile 8484): 1.0 µg/mL
- MIC (Clostridium difficile [4]; Table 16, C. difficile A-194): 1.0 µg/mL
- MIC (Clostridium difficile [4]; Table 16, C. difficile A-195): 1.0 µg/mL
- MIC (Clostridium difficile [4]; Table 16, C. difficile A-196): 1.0 µg/mL
- MIC (Clostridium difficile [4]; Table 16, C. difficile A-279): 1.0 µg/mL
- MIC (Clostridium difficile [4]; Table 16, C. difficile A-280): 1.0 µg/mL
- MIC (Clostridium difficile [4]; Table 16, C. difficile A-281): 1.0 µg/mL
- MIC (Clostridium difficile [4]; [13]): 1.0 µg/mL
- MIC (Clostridium difficile [4]; [14]): 1.0 µg/mL
- MIC (Clostridium difficile [4]; [15]): 1.0 µg/mL
- MIC (Clostridium perfringens): 2 µg/mL
- MIC (Clostridium septicum): 2 µg/mL
- MIC (Eubacterium aerofaciens): 2 µg/mL
- MIC (Peptococcus prevoti): 2 µg/mL
- MIC [5]: ≤ 0.5 µg/mL
- MIC [6]: 2 µg/mL
- MIC [7, 16]: 64 µg/mL
- MIC (Fusobacterium symbiosum): 2 µg/mL
- MIC [8]: 2 µg/mL
- MIC (Klebsiella pneumoniae): 64 µg/mL
- MIC (Salmonella typhi; Salmonella typhi 1335): > 128 µg/mL
- MIC (Salmonella typhi; Salmonella typhi X514): > 128 µg/mL
- MIC (Bacteroides corrodens): 32 µg/mL
- MIC (Bacteroides vulgatis): 64 µg/mL
- MIC (Clostridium difficile [10]): 2 µg/mL
- MIC [9]: 1.0 µg/mL
